# Target: T1, full-length human PKCι (Homo sapiens, UniProt P41743)
# T1 construct: Recombinant, full-length human PKCι expressed in Sf21 insect cells is also commercially available; purchased; host or cells: Sf21 insect cells
# T1 sequence (P41743 1-596): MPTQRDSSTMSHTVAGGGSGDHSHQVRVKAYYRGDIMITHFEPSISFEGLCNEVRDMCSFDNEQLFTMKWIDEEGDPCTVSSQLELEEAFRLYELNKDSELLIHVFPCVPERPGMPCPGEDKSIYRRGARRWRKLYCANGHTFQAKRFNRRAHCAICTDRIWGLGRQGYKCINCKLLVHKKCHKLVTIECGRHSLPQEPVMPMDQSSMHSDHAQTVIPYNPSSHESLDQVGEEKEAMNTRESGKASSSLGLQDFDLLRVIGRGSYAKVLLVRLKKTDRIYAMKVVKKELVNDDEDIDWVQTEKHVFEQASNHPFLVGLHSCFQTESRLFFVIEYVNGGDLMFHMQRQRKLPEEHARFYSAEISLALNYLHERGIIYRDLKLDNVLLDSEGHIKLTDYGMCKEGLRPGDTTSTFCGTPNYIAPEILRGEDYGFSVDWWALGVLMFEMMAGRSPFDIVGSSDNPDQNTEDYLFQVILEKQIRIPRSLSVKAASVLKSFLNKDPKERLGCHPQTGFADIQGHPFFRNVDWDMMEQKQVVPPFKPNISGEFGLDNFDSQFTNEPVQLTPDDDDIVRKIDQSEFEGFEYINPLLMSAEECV
# Test: PKCι IC50 IMAP assay, full-length PKCι at 150 μM ATP
# Type: biochemical
# Conditions: read-out: IC50 in IMAP assay against full length PKCi at 150 μM ATP
# In short: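 Full-length human PKCι from Sf21 cells, typically 15 pM, with 100 nM 5FAM-PKCε pseudosubstrate peptide and 150 μM ATP (5× apparent KM), 60 min at room temperature, 4% DMSO. IMAP fluorescence polarisation read-out; inhibition normalised to no-compound and no-enzyme controls, IC50 from curve fit.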
row,IC50,SMILES
1,10 to 40 µM,"c1cc(-c2nc(N3CCC4NCC[C@H]4C3)c3ccncc3n2)ccn1 (stereo partly drawn) [Example 67, 4-{4-[(3aS)-octahydro-1H-pyrrolo[3,2-c]-pyridin-5-yl]-pyrido[3,4-d]-pyrimidin-2-yl}-pyridine]"
2,0.1 to 1 µM,"Clc1nccc2c(N3CCN[C@@H](Cc4ccccc4)C3)nc(-c3ccncc3)nc12 [Example 68, (3S)-3-benzyl-1-[8-chloro-2-(pyridin-4-yl)pyrido[3,4-d]-pyrimidin-4-yl]-piperazine]"
3,10 to 40 µM,"c1ccc(C2CN(c3nc(-c4ccncc4)nc4cnccc34)CCN2)cc1 (stereo not shown) [Example 69, 3-phenyl-1-[2-(pyridin-4-yl)-pyrido[3,4-d]-pyrimidin-4-yl]-piperazine]"
4,1 to 10 µM,"COc1cncc2nc(-c3ccncc3)nc(N3CCOCC3)c12 [Example 70, 4-[5-methoxy-2-(pyridin-4-yl)-pyrido[3,4-d]-pyrimidin-4-yl]-morpholine]"
5,1 to 10 µM,"C#CC1CN(c2nc(-c3ccncc3)nc3cnccc23)CCN1 (stereo not shown) [Example 71, 3-ethynyl-1-[2-(pyridin-4-yl)-pyrido[3,4-d]-pyrimidin-4-yl]-piperazine]"
6,1 to 10 µM,"COc1cncc2nc(-c3ccncc3)nc(N3CCOC(Cc4ccccc4)C3)c12 (stereo not shown) [Example 72, 2-benzyl-4-[5-methoxy-2-(pyridin-4-yl)pyrido[3,4-d]-pyrimidin-4-yl]-morpholine]"
7,10 to 40 µM,"OCC1CN(c2nc(-c3ccncc3)nc3c(Cl)nccc23)C1 [Example 73, {1-[8-chloro-2-(pyridin-4-yl)-pyrido[3,4-d]-pyrimidin-4-yl]-azetidin-3-yl}-methanol]"
8,< 0.1 µM,"COc1cncc2nc(-c3ccncc3)nc(N3CCN[C@@H](C(F)c4ccccc4)C3)c12 (stereo partly drawn) [Example 74, (3R)-3-[fluoro(phenyl)-methyl]-1-[5-methoxy-2-(pyridin-4-yl)-pyrido[3,4-d]-pyrimidin-4-yl]-piperazine]"
9,1 to 10 µM,"OC1CCN(c2nc(-c3ccncc3)nc3c(Cl)nccc23)CC1 [Example 75, 1-[8-chloro-2-(pyridin-4-yl)-pyrido[3,4-d]-pyrimidin-4-yl]-piperidin-4-ol]"
10,< 0.1 µM,"COc1cncc2nc(-c3ccncc3)nc(N3CCN[C@@H](C(F)c4ccccc4)C3)c12 (stereo partly drawn) [Example 76, (3R)-3-[fluoro(phenyl)-methyl]-1-[5-methoxy-2-(pyridin-4-yl)-pyrido[3,4-d]-pyrimidin-4-yl]-piperazine]"
11,1 to 10 µM,"O=CN[C@H](CNc1nc(-c2ccncc2)nc2cnccc12)Cc1ccccc1 [Example 78, N—[(S)-1-Benzyl-2-(2-pyridin-4-yl-pyrido[3,4-d]pyrimidin-4-ylamino)-ethyl]-formamide]"
12,10 to 40 µM,"CC(=O)N[C@H](CNc1nc(-c2ccncc2)nc2cnccc12)Cc1ccccc1 [Example 79, N—[(S)-1-Benzyl-2-(2-pyridin-4-yl-pyrido[3,4-d]pyrimidin-4-ylamino)-ethyl]-acetamide]"

# The remaining lines, values behind:
row,SMILES,IC50
1,"c1cc(-c2nc(N[C@@H]3CCOC3)c3ccncc3n2)ccn1 [Example 42, N-[(3R)-oxolan-3-yl]-2-(pyridin-4-yl)-pyrido[3,4-d]-pyrimidin-4-amine]",10 to 40 µM
2,"COc1cncc2nc(-c3ccncc3)nc(N3CCNC(C(F)(F)F)C3)c12 (stereo not shown) [Example 43, 1-[5-methoxy-2-(pyridin-4-yl)pyrido[3,4-d]-pyrimidin-4-yl]-3-(trifluoromethyl)-piperazine]",1 to 10 µM
3,"COc1cncc2nc(-c3ccncc3)nc(N3CCN[C@@H](C)C3)c12 [Example 44, (3S)-1-[5-methoxy-2-(pyridin-4-yl)-pyrido[3,4-d]-pyrimidin-4-yl]-3-methylpiperazine]",0.1 to 1 µM
4,"COc1cncc2nc(-c3ccncc3)nc(N3CC[C@@H](N)C3)c12 [Example 45, (3R)-1-[5-methoxy-2-(pyridin-4-yl)-pyrido[3,4-d]-pyrimidin-4-yl]-pyrrolidin-3-amine]",1 to 10 µM
5,"COc1cncc2nc(-c3ccncc3)nc(N3CCN[C@@H](CO)C3)c12 [Example 46, [(2R)-4-[5-methoxy-2-(pyridin-4-yl)-pyrido[3,4-d]-pyrimidin-4-yl]-piperazin-2-yl]-methanol]",< 0.1 µM
6,"COc1cncc2nc(-c3ccncc3)nc(NC[C@@H](N)[C@H](F)c3ccccc3)c12 [Example 47, N-[(2R,3R)-2-amino-3-fluoro-3-phenylpropyl]-5-methoxy-2-(pyridin-4-yl)pyrido[3,4-d]-pyrimidin-4-amine]",< 0.1 µM
7,"COc1cncc2nc(-c3ccncc3)nc(N3CCN(CC(N)=O)[C@@H](Cc4ccccc4)C3)c12 [Example 48, 2-[(2S)-2-benzyl-4-[5-methoxy-2-(pyridin-4-yl)-pyrido[3,4-d]-pyrimidin-4-yl]-piperazin-1-yl]acetamide]",1 to 10 µM
8,"COc1cncc2nc(-c3ccncc3)nc(NC[C@H](Cc3ccccc3)N(C)C)c12 [Example 49, [(2S)-1-{[5-methoxy-2-(pyridin-4-yl)-pyrido[3,4-d]-pyrimidin-4-yl]-amino}-3-phenylpropan-2-yl]dimethylamine]",1 to 10 µM
9,"COc1cncc2nc(-c3ccncc3)nc(N3CC[C@H](O)C3)c12 [Example 50, (3S)-1-[5-methoxy-2-(pyridin-4-yl)-pyrido[3,4-d]-pyrimidin-4-yl]-pyrrolidin-3-ol]",10 to 40 µM
10,"COc1cncc2nc(-c3ccncc3)nc(N3C[C@@H](C)N[C@@H](C)C3)c12 [Example 51, 1-[5-methoxy-2-(pyridin-4-yl)-pyrido[3,4-d]-pyrimidin-4-yl]-3,5-cis-dimethylpiperazine]",1 to 10 µM
11,"COc1cncc2nc(-c3ccncc3)nc(N3CCN[C@H](C)C3)c12 [Example 52, (3R)-1-[5-methoxy-2-(pyridin-4-yl)-pyrido[3,4-d]-pyrimidin-4-yl]-3-methylpiperazine]",1 to 10 µM
12,"COc1cncc2nc(-c3ccncc3)nc(N3CC[C@H](N)C3)c12 [Example 53, (3S)-1-[5-methoxy-2-(pyridin-4-yl)-pyrido[3,4-d]-pyrimidin-4-yl]-pyrrolidin-3-amine]",0.1 to 1 µM
13,"COc1cncc2nc(-c3ccncc3)nc(N3CCNC(CF)C3)c12 (stereo not shown) [Example 54, 3-(fluoromethyl)-1-[5-methoxy-2-(pyridin-4-yl)-pyrido[3,4-d]-pyrimidin-4-yl]-piperazine]",1 to 10 µM
14,"CC(C)NC(=O)C1CCN(c2nc(-c3ccncc3)nc3cnccc23)CC1 [Example 55, N-(propan-2-yl)-1-[2-(pyridin-4-yl)-pyrido[3,4-d]-pyrimidin-4-yl]-piperidine-4-carboxamide]",1 to 10 µM
15,"NC(=O)N1CCN(c2nc(-c3ccncc3)nc3cnccc23)CC1 [Example 56, 4-[2-(pyridin-4-yl)-pyrido[3,4-d]-pyrimidin-4-yl]-piperazine-1-carboxamide]",10 to 40 µM
16,"O=C(NC1CCCCC1)N1CCN(c2nc(-c3ccncc3)nc3cnccc23)CC1 [Example 57, N-cyclohexyl-4-[2-(pyridin-4-yl)-pyrido[3,4-d]-pyrimidin-4-yl]-piperazine-1-carboxamide]",10 to 40 µM
17,"COc1cncc2nc(-c3ccncc3)nc(N3CCNC(CC#N)C3)c12 (stereo not shown) [Example 58, 2-{4-[5-methoxy-2-(pyridin-4-yl)-pyrido[3,4-d]-pyrimidin-4-yl]-piperazin-2-yl]-acetonitrile]",0.1 to 1 µM
18,"FC(F)(F)C1CN(c2nc(-c3ccncc3)nc3cnccc23)CCN1 (stereo not shown) [Example 59, 1-[2-(pyridin-4-yl)-pyrido[3,4-d]-pyrimidin-4-yl]-3-(trifluoromethyl)-piperazine]",10 to 40 µM
19,"FC(F)(F)C1CN(c2nc(-c3ccncc3)nc3c(Cl)nccc23)CCN1 (stereo not shown) [Example 60, 1-[8-chloro-2-(pyridin-4-yl)-pyrido[3,4-d]-pyrimidin-4-yl]-3-(trifluoromethyl)-piperazine]",1 to 10 µM
20,"CC[C@H]1CN(c2nc(-c3ccncc3)nc3cnccc23)CCN1 [Example 61, (3S)-3-ethyl-1-[2-(pyridin-4-yl)-pyrido[3,4-d]-pyrimidin-4-yl]-piperazine]",1 to 10 µM
21,"CC(C)[C@H]1CN(c2nc(-c3ccncc3)nc3cnccc23)CCN1 [Example 62, (3S)-3-(propan-2-yl)-1-[2-(pyridin-4-yl)-pyrido[3,4-d]-pyrimidin-4-yl]-piperazine]",1 to 10 µM
22,"COc1cncc2nc(-c3ccncc3F)nc(N3CCNCC3)c12 [Example 63, 1-[2-(3-fluoropyridin-4-yl)-5-methoxypyrido-[3,4-d]pyrimidin-4-yl]piperazine]",0.1 to 1 µM
23,"c1cc(-c2nc(N3CCN4CCC[C@@H]4C3)c3ccncc3n2)ccn1 [Example 64, 4-{4-[(8aR)-octahydropyrrolo-[1,2-a]piperazin-2-yl]pyrido[3,4-d]-pyrimidin-2-yl}-pyridine]",10 to 40 µM
24,"Fc1cnccc1-c1nc(N2CCNCC2)c2ccncc2n1 [Example 65, 1-[2-(3-fluoropyridin-4-yl)pyrido[3,4-d]-pyrimidin-4-yl]-piperazine]",10 to 40 µM
25,"Fc1cnccc1-c1nc(N2CCNC(C(F)(F)F)C2)c2ccncc2n1 (stereo not shown) [Example 66, 1-[2-(3-fluoropyridin-4-yl)pyrido[3,4-d]-pyrimidin-4-yl]-3-(trifluoromethyl)-piperazine]",10 to 40 µM

# Source: patent US9914730B2, “Azaquinazoline inhibitors of Atypical protein Kinase C” (Ignyta, Inc., priority 2012, dated 2018)
